Test results reported in patent US20250282728A1, “NITROGEN COMPRISING HETEROCYCLIC DERIVATIVES FOR THE TREATMENT OF DISORDERS ASSOCIATED WITH GPR55 RECEPTOR” (Cerevance, Inc., priority 2022, published 2025).

Legend:
rat GPR55 = target: T1, rat GPR55 (Rattus norvegicus, UniProt F1MAK4); assay: Ca2+ mobilization assay (FLIPR, Calcium5 dye), rat GPR55; type: cell-based; conditions: HEK293 cells co-expressing PK-tagged rat GPR55 and EA-tagged beta-arrestin; intracellular calcium increase
T1 construct: expressed in transfected cells; host or cells: HEK293 (human embryonic kidney) cells
T1 sequence (F1MAK4 1-319): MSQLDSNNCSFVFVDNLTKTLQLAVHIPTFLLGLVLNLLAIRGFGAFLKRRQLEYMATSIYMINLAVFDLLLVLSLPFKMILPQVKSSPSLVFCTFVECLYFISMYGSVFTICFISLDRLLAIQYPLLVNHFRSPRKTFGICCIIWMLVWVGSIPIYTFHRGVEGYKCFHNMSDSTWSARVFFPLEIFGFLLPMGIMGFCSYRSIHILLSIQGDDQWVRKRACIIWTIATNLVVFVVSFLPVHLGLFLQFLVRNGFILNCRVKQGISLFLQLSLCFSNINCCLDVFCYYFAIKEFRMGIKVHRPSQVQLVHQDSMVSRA
Method: (§1) This cell-based assay measures the ability of compounds to activate the GPR55 receptor by measuring changes in intracellular calcium levels. HEK293 (human embryonic kidney) cells co-expressing recombinant ProLink (PK) tagged human or rat GPR55 and Enzyme Acceptor (EA) tagged beta-arrestin were seeded into PDL-coated, black-walled clear-bottom 384 well plates in assay buffer (25 mM HEPES, HBSS, 1 mM Probenicid, 0.1% BSA, pH 7.4) containing Calcium5 dye (Molecular Devices). Cells were incubated in suspension with the Calcium5 dye for 1 hour at 37° C., 5% CO2. Dilution series of the compounds in assay buffer were added to the cells in duplicate wells and compound-mediated real-time increases in intracellular calcium concentration were recorded as increased fluorescence using the Molecular Devices FLIPR instrument. Kinetic traces were reduced to a numerical value by subtracting the minimum response from the maximum response.

human GPR55 = target: T2, human GPR55 (Homo sapiens, UniProt Q9Y2T6); assay: Ca2+ mobilization assay (FLIPR, Calcium5 dye), human GPR55; type: cell-based; conditions: HEK293 cells co-expressing PK-tagged human GPR55 and EA-tagged beta-arrestin; intracellular calcium increase
T2 construct: expressed in transfected cells; host or cells: HEK293 (human embryonic kidney) cells
T2 sequence (Q9Y2T6 whole entry): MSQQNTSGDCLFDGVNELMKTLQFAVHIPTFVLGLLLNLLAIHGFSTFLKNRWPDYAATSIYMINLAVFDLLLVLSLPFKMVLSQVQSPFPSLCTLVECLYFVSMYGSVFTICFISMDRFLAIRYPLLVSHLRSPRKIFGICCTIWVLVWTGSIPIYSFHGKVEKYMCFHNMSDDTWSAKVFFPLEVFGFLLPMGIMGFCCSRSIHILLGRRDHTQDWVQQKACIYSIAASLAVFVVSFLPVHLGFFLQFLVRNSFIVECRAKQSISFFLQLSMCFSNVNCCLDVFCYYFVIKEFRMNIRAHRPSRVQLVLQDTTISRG
Method: as §1

Structure (SMILES) | EC50 (rat GPR55) [nM] | EC50 (human GPR55) [nM]
C=Cc1cc(-c2cnc(N[C@H](C)c3ccc(F)cc3)cn2)cnn1 [Example 44, (R)-N-(1-(4-fluorophenyl)ethyl)-5-(6-vinylpyridazin-4-yl)pyrazin-2-amine] | ≤ 5000 | ≤ 1000
C[C@@H](Nc1ncc(-c2cncc(CO)c2)nn1)c1ccc(F)cc1 [Example 41, (R)-(5-(3-((1-(4-fluorophenyl)ethyl)amino)-1,2,4-triazin-6-yl)pyridin-3-yl)methanol] | ≤ 1000 | ≤ 200
C[C@@H](Nc1ccc(-c2cncc([S+](C)[O-])c2)cn1)c1ccc(F)cc1 (stereo partly drawn) [Example 14, N-((R)-1-(4-fluorophenyl)ethyl)-5′-(methylsulfinyl)-[3,3′-bipyridin]-6-amine] | ≤ 5000 | ≤ 200
C[C@@H](Nc1cnc(-c2cnnc(CC(F)(F)F)c2)cn1)c1ccc(F)cc1 [Example 57, (R)-N-(1-(4-fluorophenyl)ethyl)-5-(6-(2,2,2-trifluoroethyl)pyridazin-4-yl)pyrazin-2-amine] | ≤ 5000 | ≤ 50
C[C@@H](Nc1cnc(-c2cncc(CCO)c2)cn1)c1ccc(F)cc1 [Example 35, (R)-2-(5-(5-((1-(4-fluorophenyl)ethyl)amino)pyrazin-2-yl)pyridin-3-yl)ethan-1-ol] | ≤ 5000 | ≤ 50
CN=S(C)(=O)c1cncc(-c2ccc(N[C@H](C)c3ccc(F)cc3)nc2)c1 (single isomer, unassigned) [Example 30b] | ≤ 1000 | –
C[C@@H](Nc1ncc(-c2cnc3ncn(C)c3c2)nn1)c1ccc(F)cc1 [Example 82, (R)-N-(1-(4-fluorophenyl)ethyl)-6-(1-methyl-1H-imidazo[4,5-b]pyridin-6-yl)-1,2,4-triazin-3-amine] | ≤ 5000 | ≤ 1000
C[C@@H](Nc1cnc(-c2cnc3oc(=O)n(C)c3c2)cn1)c1ccc(F)cc1 [Example 26, (R)-6-(5-((1-(4-fluorophenyl)ethyl)amino)pyrazin-2-yl)-1-methyloxazolo[5,4-b]pyridin-2(1H)-one] | ≤ 5000 | ≤ 1000
CCn1c(=O)oc2ccc(-c3cnc(N[C@H](C)c4ccc(F)cc4)nn3)cc21 [Example 67, (R)-3-ethyl-5-(3-((1-(4-fluorophenyl)ethyl)amino)-1,2,4-triazin-6-yl)benzo[d]oxazol-2(3H)-one] | ≤ 1000 | ≤ 200
CCc1cncc(-c2ccc(N[C@H](C)c3ccccc3F)nc2)c1 [Example 19, (R)-5′-ethyl-N-(1-(2-fluorophenyl)ethyl)-[3,3′-bipyridin]-6-amine] | ≤ 1000 | ≤ 1000
C[C@@H](Nc1cnc(-c2cncc(OC(F)(F)F)c2)cn1)c1ccc(F)cc1 [Example 43, (R)-N-(1-(4-fluorophenyl)ethyl)-5-(5-(trifluoromethoxy)pyridin-3-yl)pyrazin-2-amine] | ≤ 5000 | ≤ 50
C[C@@H](Nc1ncc(-c2ccc3oc(=O)n(C)c3c2)nn1)c1ccc(F)c(F)c1 [Example 76, (R)-5-(3-((1-(3,4-difluorophenyl)ethyl)amino)-1,2,4-triazin-6-yl)-3-methylbenzo[d]oxazol-2(3H)-one] | ≤ 1000 | ≤ 1000
OC(c1cncc(-c2cnc(N[C@@H]3CCc4ccccc43)cn2)c1)C(F)F (stereo partly drawn) [Example 45, 1-(5-(5-(((R)-2,3-dihydro-1H-inden-1-yl)amino)pyrazin-2-yl)pyridin-3-yl)-2,2-difluoroethan-1-ol] | ≤ 1000 | ≤ 200
C[C@@H](Nc1ncc(-c2cnc3c(c2)ncn3C)nn1)c1ccc(F)cc1 [Example 83, (R)-N-(1-(4-fluorophenyl)ethyl)-6-(3-methyl-3H-imidazo[4,5-b]pyridin-6-yl)-1,2,4-triazin-3-amine] | ≤ 5000 | ≤ 5000
Cc1cncc(-c2ccc(N[C@H](C)c3ccc(F)cc3)nc2)c1C [Example 11, (R)-N-(1-(4-fluorophenyl)ethyl)-4′,5′-dimethyl-[3,3′-bipyridin]-6-amine] | ≤ 1000 | ≤ 1000
C#Cc1cncc(-c2ccc(N[C@H](C)c3ccc(F)cc3)nc2)c1 [Example 51, (R)-5′-ethynyl-N-(1-(4-fluorophenyl)ethyl)-[3,3′-bipyridin]-6-amine] | ≤ 1000 | ≤ 50
C[C@@H](Nc1ncc(-c2cncc(CC(F)(F)F)c2)nn1)c1ccc(F)cc1 [Example 55, (R)-N-(1-(4-fluorophenyl)ethyl)-6-(5-(2,2,2-trifluoroethyl)pyridin-3-yl)-1,2,4-triazin-3-amine] | ≤ 5000 | –
C[C@@H](Nc1cnc(-c2cncc(CC(F)(F)F)c2)cn1)c1ccc(F)cc1 [Example 53, (R)-N-(1-(4-fluorophenyl)ethyl)-5-(5-(2,2,2-trifluoroethyl)pyridin-3-yl)pyrazin-2-amine] | ≤ 5000 | –
C[C@@H](Nc1ccc(-c2ccc3oc(=O)n(C)c3c2)cn1)c1ccc(F)cc1 [Example 60, (R)-5-(6-((1-(4-fluorophenyl)ethyl)amino)pyridin-3-yl)-3-methylbenzo[d]oxazol-2(3H)-one] | ≤ 1000 | –
C[C@@H](Nc1ncc(-c2cncc(S(C)(=O)=O)c2)cn1)c1ccc(F)cc1 [Example 25, (R)-N-(1-(4-fluorophenyl)ethyl)-5-(5-(methylsulfonyl)pyridin-3-yl)pyrimidin-2-amine] | ≤ 5000 | –
Cc1cncc(-c2ccc(NC(C)c3ccc(F)cc3)nc2)c1 (stereo not drawn) [Example 1, N-(1-(4-fluorophenyl)ethyl)-5′-methyl-[3,3′-bipyridin]-6-amine] | ≤ 5000 | –
C[C@@H](Nc1ccc(-c2cncc(S(C)(=N)=O)c2)cn1)c1ccc(F)cc1 (single isomer, unassigned) [Example 27b] | ≤ 1000 | –

Second part, the molecule after the results:

EC50 (rat GPR55) [nM] | EC50 (human GPR55) [nM] | Structure (SMILES)
≤ 1000 | ≤ 50 | CCc1cncc(-c2ccc(N[C@H](C)c3cccc(F)c3)nc2)c1 [Example 48, (R)-5′-ethyl-N-(1-(3-fluorophenyl)ethyl)-[3,3′-bipyridin]-6-amine]
≤ 1000 | ≤ 50 | C[C@@H](Nc1cnc(-c2cncc(C(O)C(F)(F)F)c2)cn1)c1ccc(F)cc1 (single isomer, unassigned) [Example 32b]
≤ 1000 | ≤ 50 | C=Cc1cncc(-c2cnc(N[C@H](C)c3ccc(F)cc3)cn2)c1 [Example 33, (R)-N-(1-(4-fluorophenyl)ethyl)-5-(5-vinylpyridin-3-yl)pyrazin-2-amine]
≤ 1000 | – | CCc1cncc(-c2ccc(N[C@H](C)c3ccc(F)cc3)nc2)c1 [Example 4, (R)-5′-ethyl-N-(1-(4-fluorophenyl)ethyl)-[3,3′-bipyridin]-6-amine]
≤ 1000 | ≤ 200 | C[C@@H](Nc1ncc(-c2ccc3oc(=O)n(C(F)F)c3c2)nn1)c1ccc(F)cc1 [Example 68, (R)-3-(difluoromethyl)-5-(3-((1-(4-fluorophenyl)ethyl)amino)-1,2,4-triazin-6-yl)benzo[d]oxazol-2(3H)-one]
≤ 50 | ≤ 200 | CNCc1cncc(-c2cnc(N[C@H](C)c3ccc(F)cc3)cn2)c1 [Example 37, (R)-N-(1-(4-fluorophenyl)ethyl)-5-(5-(methylamino)methylpyridin-3-yl)pyrazin-2-amine]
≤ 200 | ≤ 50 | C[C@@H](Nc1cnc(-c2cncc(CCF)c2)cn1)c1ccc(F)cc1 [Example 52, (R)-5-(5-(2-fluoroethyl)pyridin-3-yl)-N-(1-(4-fluorophenyl)ethyl)pyrazin-2-amine]
≤ 50 | – | C[C@@H](Nc1ccc(-c2cncc(C(F)(F)F)c2)cn1)c1ccc(F)cc1 [Example 8, (R)-N-(1-(4-fluorophenyl)ethyl)-5′-(trifluoromethyl)-[3,3′-bipyridin]-6-amine]
≤ 50 | – | C[C@@H](Nc1ccc(-c2cncc(S(C)(=N)=O)c2)cn1)c1ccc(F)cc1 (mixture of isomers) [Example 27, (6′-(((R)-1-(4-fluorophenyl)ethyl)amino)-[3,3′-bipyridin]-5-yl)(imino)(methyl)-λ^6-sulfanone]
≤ 200 | – | C[C@@H](Nc1ccc(-c2cncc(S(C)(=N)=O)c2)cn1)c1ccc(F)cc1 (single isomer, unassigned) [Example 27a]
≤ 50 | – | CN=S(C)(=O)c1cncc(-c2ccc(N[C@H](C)c3ccc(F)cc3)nc2)c1 (single isomer, unassigned) [Example 30a]
≤ 50 | – | Cc1cncc(-c2ccc(N[C@H](C)c3ccc(F)cc3)nc2)c1 [Example 3, (R)-N-(1-(4-fluorophenyl)ethyl)-5′-methyl-[3,3′-bipyridin]-6-amine]
≤ 50 | – | CN=S(C)(=O)c1cncc(-c2ccc(N[C@H](C)c3ccc(F)cc3)nc2)c1 (mixture of isomers) [Example 30, (6′-(((R)-1-(4-fluorophenyl)ethyl)amino)-[3,3′-bipyridin]-5-yl)(methyl)(methylimino)-λ6-sulfanone]
≤ 200 | – | C[C@@H](Nc1ncc(-c2ccc3oc(=O)n(C)c3c2)nn1)c1ccc(F)cc1 [Example 64, (R)-5-(3-((1-(4-fluorophenyl)ethyl)amino)-1,2,4-triazin-6-yl)-3-methylbenzo[d]oxazol-2(3H)-one]
